Values of other authors as cited in US6399099B1, “Effervescent composition with dry extract of ginkgo biloba” (Dr. Willmar Schwabe GmbH & Co., priority 1995, dated 2002).

Details: neutral or slightly basic aqueous medium

For `CC(C)(C)[C@]1(O)CC2OC(=O)CC23C(=O)OC2OC(=O)[C@H](O)C231` (stereo partly shown) [bilobalide], the “stability in aqueous medium” value is listed as “not stable”.
